{"source": "patent US20240287042A1", "about": "“NOVEL COMPOUND HAVING INHIBITORY ACTIVITY AGAINST PENDRIN, AND PHARMACEUTICAL USES THEREOF” (UIF (University Industry Foundation), Yonsei University, priority 2021, published 2024)", "target": "T1, human WT SLC26A9 (Homo sapiens, UniProt Q7LBE3)", "T1 construct": "expressed in transfected cells", "T1 sequence (Q7LBE3 1-791)": "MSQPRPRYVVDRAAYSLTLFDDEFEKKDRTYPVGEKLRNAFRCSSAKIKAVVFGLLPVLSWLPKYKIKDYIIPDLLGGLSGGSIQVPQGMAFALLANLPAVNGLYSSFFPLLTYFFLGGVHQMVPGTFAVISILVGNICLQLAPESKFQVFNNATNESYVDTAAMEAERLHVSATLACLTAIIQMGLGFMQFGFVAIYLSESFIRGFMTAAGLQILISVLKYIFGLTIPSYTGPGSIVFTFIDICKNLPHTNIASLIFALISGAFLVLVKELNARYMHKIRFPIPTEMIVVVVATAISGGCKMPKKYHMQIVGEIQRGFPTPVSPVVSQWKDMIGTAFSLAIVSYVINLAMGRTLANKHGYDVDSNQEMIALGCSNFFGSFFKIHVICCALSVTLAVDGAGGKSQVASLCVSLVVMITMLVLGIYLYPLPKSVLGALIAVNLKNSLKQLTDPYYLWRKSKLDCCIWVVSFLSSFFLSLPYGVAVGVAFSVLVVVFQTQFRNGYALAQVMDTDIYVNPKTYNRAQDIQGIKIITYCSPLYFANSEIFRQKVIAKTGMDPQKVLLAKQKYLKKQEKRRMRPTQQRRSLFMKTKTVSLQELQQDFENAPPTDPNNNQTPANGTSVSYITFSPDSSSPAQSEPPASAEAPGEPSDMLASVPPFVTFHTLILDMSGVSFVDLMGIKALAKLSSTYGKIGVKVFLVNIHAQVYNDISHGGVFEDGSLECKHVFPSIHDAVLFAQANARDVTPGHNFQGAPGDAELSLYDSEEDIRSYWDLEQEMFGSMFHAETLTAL", "experiment": "SLC26A9 Cl−/I− exchange activity, YFP fluorescence in LN-215 cells", "format": "cell-based", "conditions": "100 μM, FIG. 3", "experimental": "Chinese hamster ovary (CHO)-K1 cells or LN-215 cells were cultured in DMEM medium containing 10% fetal bovine serum (FBS), 100 units/ml of penicillin and 100 μg/ml streptomycin. CHO-K1 cells or LN-215 cells were stably transfected with pcDNA3.1 encoding the halide sensor YFP-H148Q/I152L/F46L and human wild-type (WT)-SLC26A9. Fisher rat thyroid (FRT) cells stably transfected with YFP-H148Q/I152L/F46L and human wild type (WT)-CFTR or human wild type (WT)-ANO1 were cultured in DMEM/F-12 medium containing 10% fetal bovine serum (FBS), 100 units/ml of penicillin, and 100 μg/ml of streptomycin.\nLN-215 cells expressing human WT SLC26A9 and YFP-F46L/H148Q/I152L, and FRT cells expressing human WT CFTR or ANO1 and YFP-F46L/H148Q/I152L were plated in 96-well microplates at a density of 2×10^4 cells per well, and cultured for 48 hours. […] After culturing at 37° C. for 10 minutes, the 96-well plate was located on the FLUOstar Omega Microplate Reader (BMG Labtech, Ortenberg, Germany) for a fluorescence assay. For assay of the activity of […], fluorescence was recorded continuously (400 ms per point) for 1 second (baseline), whereby each well was assayed individually for SLC26A9-mediated I-influx. Then, 50 μL of NaI-substituted HEPES buffered solution (replacing NaCl with NaI) was added using a liquid injector at 1 second, and YFP fluorescence was recorded for 6 seconds. […]"}
{"smiles": "Cc1ccc2[nH]c(C(=O)O)c(CC(=O)N3CCN(c4c(C)cccc4Cl)CC3)c2c1", "note": "[YPI-A4948, 3-(2-(4-(2-Chloro-6-methylphenyl)piperazin-1-yl)-2-oxoethyl)-5-methyl-1H-indole-2-carboxylic acid]", "values": [{"measurement": "Effect on activity of SLC26A9", "value": "did not inhibit"}]}
{"smiles": "Cc1ccc(C)c(N2CCN(C(=O)Cc3c(C(=O)O)[nH]c4ccc(Cl)cc34)CC2)c1", "note": "[YPI-H05, 5-chloro-3-(2-(4-(2,5-dimethylphenyl)piperazin-1-yl-)-2-oxoethyl)-1H-indole-2-carboxylic acid]", "values": [{"measurement": "Effect on activity of SLC26A9", "value": "did not inhibit"}]}
